In the assay the test system is Endogenous Huntingtin Protein. The experiment in a line: Endogenous Huntingtin Protein Assay (ELISA-based Meso Scale Discovery electrochemiluminescence). The assay is classed as cell-based. The conditions noted are these: MSD electrochemiluminescence, Table 1. The protocol:
Compounds of Formula (I) or Formula (II) were tested using the Meso Scale Discovery (MSD) Assay provided in International Application No. PCT/US2016/066042, filed on Dec. 11, 2016 and claiming priority to U.S. Provisional Application 62/265,652 filed on Dec. 10, 2015, the entire contents of which are incorporated herein by reference.
The Endogenous Huntingtin Protein assay used in Example 1 was developed using the ELISA-based MSD electrochemiluminescence assay platform.
Endogenous Huntingtin Protein Assay
Meso Scale Discovery (MSD) 96-well or 384-well plates were coated overnight at 4° C. with MW1 (expanded polyglutamine) or MAB2166 monoclonal antibody (for capture) at a concentration of 1 μg/mL in PBS (30 μL per well). Plates were then washed three times with 300 μL wash buffer (0.05% Tween-20 in PBS) and blocked (100 μL blocking buffer; 5% BSA in PBS) for 4-5 hours at room temperature with rotational shaking and then washed three times with wash buffer.
Samples (25 μL) were transferred to the antibody-coated MSD plate and incubated overnight at 4° C. After removal of the lysates, the plate was washed three times with wash buffer, and 25 μL of #5656S (Cell signaling; rabbit monoclonal) secondary antibody (diluted to 0.25 μg/mL in 0.05% Tween-20 in blocking buffer) was added to each well and incubated with shaking for 1 Hour at room temperature. Following incubation with the secondary antibody, the wells were rinsed with wash buffer after which 25 μL of goat anti-rabbit SULFO TAG secondary detection antibody (required aspect of the MSD system) (diluted to 0.25 μg/mL in 0.05% Tween-20 in blocking buffer) was added to each well and incubated with shaking for 1 hour at room temperature. After rinsing three times with wash buffer, 150 μL of read buffer T with surfactant (MSD) were added to each empty well, and the plate was imaged on a SI 6000 imager (MSD) according to manufacturers' instructions provided for 96- or 384-well plates.
In turn, `Cn1ccc(-c2ccc(-c3cnc(N[C@H]4CC(C)(C)NC(C)(C)[C@H]4F)nn3)c(O)c2)n1` [Cpd 261, 2-(3-{[(3S,4S)-3-fluoro-2,2,6,6-tetramethylpiperidin-4-yl]amino}-1,2,4-triazin-6-yl)-5-(1-methyl-1H-pyrazol-3-yl)phenol] returned an IC50 of no more than 100 nM. Next, `CN1CCC2(CC1)CN(c1ncc(-c3ccc(-n4ccnc4)cc3O)nn1)C2` [Cpd 231, 5-(1H-imidazol-1-yl)-2-[3-(7-methyl-2,7-diazaspiro[3.5]nonan-2-yl)-1,2,4-triazin-6-yl]phenol]: 100 to 500 nM; `Oc1cc(-c2cn[nH]c2)ccc1-c1cnc(N2C[C@H]3CNCC[C@H]3C2)nn1` [Cpd 327, 2-{3-[(3aR,7aR)-octahydro-2H-pyrrolo[3,4-c]pyridin-2-yl]-1,2,4-triazin-6-yl}-5-(1H-pyrazol-4-yl)phenol]: no more than 100 nM.

`Cn1ccc(-c2ccc(-c3cnc(NC4CC(C)(C)NC(C)(C)C4)nn3)c(O)c2)n1` [Cpd 253, 5-(1-methyl-1H-pyrazol-3-yl)-2-{3-[(2,2,6,6-tetramethylpiperidin-4-yl)amino]-1,2,4-triazin-6-yl}phenol] came in with an IC50 of no more than 100 nM. In turn, `CN(c1ncc(-c2ccc(-c3cn[nH]c3)cc2O)nn1)C1CC(C)(C)NC(C)(C)C1` [Cpd 15, 2-{3-[methyl(2,2,6,6-tetramethylpiperidin-4-yl)amino]-1,2,4-triazin-6-yl}-5-(1H-pyrazol-4-yl)phenol] gave an IC50 of no more than 100 nM. Take `Cc1n[nH]cc1-c1ccc(-c2cnc(N(C)C3CC(C)(C)NC(C)(C)C3)nn2)c(O)c1` [Cpd 6, 5-(3-methyl-1H-pyrazol-4-yl)-2-{3-[methyl(2,2,6,6-tetramethylpiperidin-4-yl)amino]-1,2,4-triazin-6-yl}phenol]: the 50% inhibitory concentration (IC50) was no more than 100 nM.

Compound `CN(c1ncc(-c2ccc(-c3nnco3)cc2O)nn1)C1CC(C)(C)NC(C)(C)C1` [Cpd 106, 2-{3-[methyl(2,2,6,6-tetramethylpiperidin-4-yl)amino]-1,2,4-triazin-6-yl}-5-(1,3,4-oxadiazol-2-yl)phenol] had an IC50 of no more than 100 nM. As to `COc1cc(-c2ccc(-c3cnc(N4CCC(NC(C)(C)C)C4)nn3)c(O)c2)ncn1` (stereo not shown) [Cpd 217, 2-{3-[3-(tert-butylamino)pyrrolidin-1-yl]-1,2,4-triazin-6-yl}-5-(6-methoxypyrimidin-4-yl)phenol], the concentration for half-maximal inhibition (IC50) is no more than 100 nM. As for `Cn1cc(-c2ccc(-c3cnc(N4CCC(NC(C)(C)C)C4)nn3)c(O)c2)cn1` (stereo not drawn) [Cpd 202, 2-{3-[3-(tert-butylamino)pyrrolidin-l-yl]-1,2,4-triazin-6-yl}-5-(1-methyl-1H-pyrazol-4-yl)phenol], the IC50 was no more than 100 nM. `CN1CCC12CCN(c1ncc(-c3ccc(-c4cn[nH]c4)cc3O)nn1)CC2` [Cpd 113, 2-[3-(1-methyl-1,7-diazaspiro[3.5]nonan-7-yl)-1,2,4-triazin-6-yl]-5-(1H-pyrazol-4-yl)phenol] showed an IC50 of 100 to 500 nM. `CN(c1ncc(-c2ccc(-c3ncn(C)n3)cc2O)nn1)C1CC(C)(C)NC(C)(C)C1` [Cpd 62, 2-{3-[methyl(2,2,6,6-tetramethylpiperidin-4-yl)amino]-1,2,4-triazin-6-yl}-5-(1-methyl-1H-1,2,4-triazol-3-yl)phenol] came in with an IC50 of 100 to 500 nM.

Take “2-(3-{[(3S,4S)-3-fluoro-2,2,6,6-tetramethylpiperidin-4-yl]amino}-1,2,4-triazin-6-yl)-5-(1H-imidazol-1-yl)phenol [Cpd 238]”: the IC50 is no more than 100 nM. For the compound `CN(c1cnc(-c2ccc(-c3ccn(C)n3)cc2O)nn1)C1CC(C)(C)NC(C)(C)C1` [Cpd 343, 5-(1-methyl-1H-pyrazol-3-yl)-2-{6-[methyl(2,2,6,6-tetramethylpiperidin-4-yl)amino]-1,2,4-triazin-3-yl}phenol], the IC50 was no more than 100 nM. Take `CN(c1ncc(-c2ccc(-c3cc(F)c4c(c3)ncn4C)cc2O)nn1)C1CC(C)(C)NC(C)(C)C1` [Cpd 300, 5-(7-fluoro-1-methyl-1H-benzimidazol-5-yl)-2-{3-[methyl(2,2,6,6-tetramethylpiperidin-4-yl)amino]-1,2,4-triazin-6-yl}phenol]: the 50% inhibitory concentration (IC50) was in the range of 1000 to 3000 nM. As for `CC(C)(C)NC1CCN(c2ncc(-c3ccc(-n4ccnc4)cc3O)nn2)C1` (stereo not drawn) [Cpd 187, 2-{3-[3-(tert-butylamino)pyrrolidin-l-yl]-1,2,4-triazin-6-yl}-5-(1H-imidazol-1-yl)phenol], the IC50 is 100 to 500 nM. In turn, `CN(c1cnc(-c2ccc(-c3ccncn3)cc2O)nn1)C1CC(C)(C)NC(C)(C)C1` [Cpd 411, 2-{6-[methyl(2,2,6,6-tetramethylpiperidin-4-yl)amino]-1,2,4-triazin-3-yl}-5-(pyrimidin-4-yl)phenol] returned an IC50 of no more than 100 nM. The compound `Oc1cc(-c2cn[nH]c2)ccc1-c1cnc(N2CCC3(CCNC3)C2)nn1` (stereo not shown) [Cpd 354, 2-[3-(2,7-diazaspirol{4.4}nonan-2-yl)-1,2,4-triazin-6-yl]-5-(1H-pyrazol-4-yl)phenol] displayed an IC50 of no more than 100 nM. `CNC1CCN(c2ncc(-c3ccc(-c4ncco4)cc3O)nn2)C1` (stereo not drawn) [Cpd 358, 2-{3-[3-(methylamino)pyrrolidin-l-yl]-1,2,4-triazin-6-yl}-5-(1,3-oxazol-2-yl)phenol] registered an IC50 of 100 to 500 nM. `Cn1ncc2cc(-c3ccc(-c4cnc(NC5CC(C)(C)NC(C)(C)C5)nn4)c(O)c3)cnc21` [Cpd 321, 5-(1-methyl-1H-pyrazolo[3,4-b]pyridin-5-yl)-2-{3-[(2,2,6,6-tetramethylpiperidin-4-yl)amino]-1,2,4-triazin-6-yl}phenol]: the half-maximal inhibitory concentration (IC50) is no more than 100 nM. In turn, `CC(C)NC1CCN(c2ncc(-c3ccc(-c4cn5ccnc5cn4)cc3O)nn2)C1` (stereo not shown) [Cpd 283, 5-(imidazo[1,2-a]pyrazin-6-yl)-2-(3-{3-[(propan-2-yl)amino]pyrrolidin-1-yl}-1,2,4-triazin-6-yl)phenol] came in with an IC50 of 1000 to 3000 nM.

On to `CN(c1ncc(-c2ccc(-c3cnc4[nH]ncc4n3)cc2O)nn1)C1CC(C)(C)NC(C)(C)C1` [Cpd 194, 2-{3-[methyl(2,2,6,6-tetramethylpiperidin-4-yl)amino]-1,2,4-triazin-6-yl}-5-(1H-pyrazolo[3,4-b]pyrazin-5-yl)phenol], for which the IC50 is no more than 100 nM. For `CN(c1ncc(-c2ccc(-c3cc(F)c4[nH]ncc4c3)cc2O)nn1)C1CC(C)(C)NC(C)(C)C1` [Cpd 383, 5-(7-fluoro-1H-indazol-5-yl)-2-{3-[methyl(2,2,6,6-tetramethylpiperidin-4-yl)amino]-1,2,4-triazin-6-yl}phenol], the IC50 is no more than 100 nM.

The compound `CC(C)(C)NC1CCN(c2ncc(-c3ccc(-c4c[nH]nc4C#N)cc3O)nn2)C1` (stereo not drawn) [Cpd 366, 4-(4-{3-[3-(tert-butylamino)pyrrolidin-l-yl]-1,2,4-triazin-6-yl]-3-hydroxyphenyl)-1H-pyrazole-3-carbonitrile] gave an IC50 of no more than 100 nM.

As to `Oc1cc(-c2cn[nH]c2)ccc1-c1cnc(N2CCC(CNC3CCOCC3)C2)nn1` (stereo not shown) [Cpd 372, 2-[3-(3-{[(oxan-4-yl)amino]methyl}pyrrolidin-1-yl)-1,2,4-triazin-6-yl]-5-(1H-pyrazol-4-yl)phenol], the IC50 is no more than 100 nM. Turning to `NC1C2CN(c3ncc(-c4ccc(-c5cn[nH]c5)cc4O)nn3)CC12` (stereo not shown) [Cpd 100, 2-[3-(6-amino-3-azabicyclo[3.1.0]hexan-3-yl)-1,2,4-triazin-6-yl]-5-(1H-pyrazol-4-yl)phenol], the concentration for half-maximal inhibition (IC50) was no more than 100 nM.

Compound `CN1CCC2(CC1)CN(c1ncc(-c3ccc(-c4ccn(C)n4)cc3O)nn1)C2` [Cpd 233, 2-[3-(7-methyl-2,7-diazaspiro[3.5]nonan-2-yl)-1,2,4-triazin-6-yl]-5-(1-methyl-1H-pyrazol-3-yl)phenol] yielded an IC50 of 1000 to 3000 nM. Compound `CC(C)(CF)NC1CCN(c2ncc(-c3ccc(-c4cn[nH]c4)cc3O)nn2)C1` (stereo not shown) [Cpd 316, 2-(3-{3-[(1-fluoro-2-methylpropan-2-yl)amino]pyrrolidin-1-yl}-1,2,4-triazin-6-yl)-5-(1H-pyrazol-4-yl)phenol] came in with an IC50 of no more than 100 nM. For `Oc1cc(-c2cn[nH]c2)ccc1-c1cnc(N2CCC(CNC3CCCC3)C2)nn1` (stereo not shown) [Cpd 386, 2-(3-{3-[(cyclopentylamino)methyl]pyrrolidin-1-yl}-1,2,4-triazin-6-yl)-5-(1H-pyrazol-4-yl)phenol], the IC50 fell in the range of 100 to 500 nM.

In turn, `COc1cnc(-c2ccc(-c3cnc(N(C)C4CC(C)(C)NC(C)(C)C4)nn3)c(O)c2)nn1` [Cpd 144, 5-(6-methoxy-1,2,4-triazin-3-yl)-2-{3-[methyl(2,2,6,6-tetramethylpiperidin-4-yl)amino]-1,2,4-triazin-6-yl}phenol] yielded an IC50 of no more than 100 nM.

Consider `CC(C)NC1CCN(c2ncc(-c3ccc(-c4c[nH]nn4)cc3O)nn2)C1` (stereo not shown) [Cpd 258, 2-(3-{3-[(propan-2-yl)amino]pyrrolidin-1-yl}-1,2,4-triazin-6-yl)-5-(1H-1,2,3-triazol-4-yl)phenol], for which the 50% inhibitory concentration (IC50) was no more than 100 nM. Next, `CC(C)(C)N[C@H]1CCN(c2ncc(-c3ccc(-c4c[nH]nc4F)cc3O)nn2)C1` [Cpd 378, 2-{3-[(3S)-3-(tert-butylamino)pyrrolidin-1-yl]-1,2,4-triazin-6-yl}-5-(3-fluoro-1H-pyrazol-4-yl)phenol]: no more than 100 nM.

The IC50 is the concentration that inhibits the measured activity by half. A high value points to a need for much substance.

(Values after US11780839B2, “Compounds for treating Huntington's disease” (PTC THERAPEUTICS, INC., priority 2018, dated 2023).)
